Earlier results as cited in publication PMC5611894 (Journal of Alzheimer's Disease, 2017).

Columns and labels:
[1] = target: Aβ42 oligomers; settings: SPR equilibrium binding, Aβ42 oligomers immobilized on chip
[2] = target: Aβ42 monomers; settings: SPR equilibrium binding, Aβ42 monomers immobilized on chip

**Q.** Which results are given for `CC[C@]12C=CCN3CC[C@]4(C(=C(C(=O)OC)C1)Nc1ccccc14)[C@@H]32` [tabersonine]?
**A.** Kd [1]: 535 µM; Kd [2]: 69 µM
